Data taken from article PMC6576746, “Rational discovery of dual-indication multi-target PDE/Kinase inhibitor for precision anti-cancer therapy using structural systems pharmacology” (PLoS Computational Biology, 2019).

How the values were obtained:
Assay in all cases: biochemical
Set-up in all cases: DiscoverX KinomeScan competition binding assay across human kinases; per cent of control at 10 and 100 uM
[1] = biological target: T1, ABL1(T315I)-phosphorylated (Homo sapiens, UniProt P00519, T315I); conditions: competition binding, % of control; read-out: Percent Control (100 uM Levosimendan)
T1 construct: phosphorylated
Outline: (§1)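 Binding is expressed as %control, normalised between positive and negative control signals. The compound (levosimendan) was tested at 10 μM and 100 μM in the DiscoverX KinomeScan competition binding format against human kinases.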

CASK = CASK (Homo sapiens, UniProt O14936); conditions: competition binding, % of control; read-out: Percent Control (100 uM Levosimendan)
Outline: as §1

CLK1 = CLK1 (Homo sapiens, UniProt P49759); conditions: competition binding, % of control; read-out: Percent Control (100 uM Levosimendan)
Outline: as §1

EGFR(S752-I759del) = EGFR(S752-I759del) (Homo sapiens, UniProt P00533, DEL752-759); conditions: competition binding, % of control; read-out: Percent Control (100 uM Levosimendan)
Outline: as §1

EPHA4 = EPHA4 (Homo sapiens, UniProt P54764); conditions: competition binding, % of control; read-out: Percent Control (100 uM Levosimendan)
Outline: as §1

ERK5 = biological target: T2, ERK5 (Homo sapiens, UniProt Q13164); conditions: competition binding, % of control; read-out: Percent Control (100 uM Levosimendan)
T2 construct: gene MAPK7
Outline: as §1

JNK2 = biological target: T3, JNK2 (Homo sapiens, UniProt P45984); conditions: competition binding, % of control; read-out: Percent Control (100 uM Levosimendan)
T3 construct: gene MAPK9
Outline: as §1

MST1R = MST1R (Homo sapiens, UniProt Q04912); conditions: competition binding, % of control; read-out: Percent Control (100 uM Levosimendan)
Outline: as §1

MYLK4 = biological target: T4, MYLK4 (Homo sapiens, UniProt Q86YV6); conditions: competition binding, % of control
T4 sequence (Q86YV6 1-388): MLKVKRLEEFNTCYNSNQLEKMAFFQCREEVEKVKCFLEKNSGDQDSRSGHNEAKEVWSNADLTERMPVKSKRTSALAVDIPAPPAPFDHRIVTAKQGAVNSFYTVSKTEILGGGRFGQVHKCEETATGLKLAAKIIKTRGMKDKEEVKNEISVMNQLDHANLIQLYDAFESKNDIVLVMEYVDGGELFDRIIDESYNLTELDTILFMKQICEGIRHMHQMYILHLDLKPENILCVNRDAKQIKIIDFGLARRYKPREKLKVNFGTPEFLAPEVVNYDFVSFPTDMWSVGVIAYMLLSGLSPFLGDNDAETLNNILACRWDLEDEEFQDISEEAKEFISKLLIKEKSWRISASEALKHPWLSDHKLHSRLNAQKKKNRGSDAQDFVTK
Outline: as §1

PDGFRA = PDGFRA (Homo sapiens, UniProt P16234); conditions: competition binding, % of control
Outline: as §1

PIK3CA(E545K) = PIK3CA(E545K) (Homo sapiens, UniProt P42336, E545K); conditions: competition binding, % of control; read-out: Percent Control (100 uM Levosimendan)
Outline: as §1

PIK3CA(Q546K) = PIK3CA(Q546K) (Homo sapiens, UniProt P42336, Q546K); conditions: competition binding, % of control; read-out: Percent Control (100 uM Levosimendan)
Outline: as §1

TAOK1 = TAOK1 (Homo sapiens, UniProt Q7L7X3); conditions: competition binding, % of control; read-out: Percent Control (100 uM Levosimendan)
Outline: as §1

TGFBR1 = TGFBR1 (Homo sapiens, UniProt P36897); conditions: competition binding, % of control
Outline: as §1

WNK2 = WNK2 (Homo sapiens, UniProt Q9Y3S1); conditions: competition binding, % of control; read-out: Percent Control (100 uM Levosimendan)
Outline: as §1

YANK2 = biological target: T5, YANK2 (Homo sapiens, UniProt Q9NY57); conditions: competition binding, % of control; read-out: Percent Control (100 uM Levosimendan)
T5 construct: gene STK32B
Outline: as §1

[2] = read-out: Percent Control (10 uM Levosimendan)
[3] = read-out: Percent Control (100 uM Levosimendan)

Sequence of TGFBR1 (P36897 whole entry): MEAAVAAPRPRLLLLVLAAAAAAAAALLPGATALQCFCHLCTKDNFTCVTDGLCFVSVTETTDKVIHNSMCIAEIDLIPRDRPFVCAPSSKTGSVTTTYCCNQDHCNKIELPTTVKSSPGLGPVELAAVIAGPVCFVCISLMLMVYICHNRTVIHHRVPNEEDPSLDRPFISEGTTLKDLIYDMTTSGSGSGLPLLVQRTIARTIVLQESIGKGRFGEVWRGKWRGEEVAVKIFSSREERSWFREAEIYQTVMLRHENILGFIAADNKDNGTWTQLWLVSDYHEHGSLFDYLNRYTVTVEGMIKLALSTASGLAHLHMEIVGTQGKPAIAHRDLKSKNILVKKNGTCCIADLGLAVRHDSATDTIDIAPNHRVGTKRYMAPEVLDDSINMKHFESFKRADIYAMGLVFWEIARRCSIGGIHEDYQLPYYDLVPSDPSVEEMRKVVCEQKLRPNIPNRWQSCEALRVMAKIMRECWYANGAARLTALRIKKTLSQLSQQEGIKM
Sequence of PDGFRA (P16234 whole entry): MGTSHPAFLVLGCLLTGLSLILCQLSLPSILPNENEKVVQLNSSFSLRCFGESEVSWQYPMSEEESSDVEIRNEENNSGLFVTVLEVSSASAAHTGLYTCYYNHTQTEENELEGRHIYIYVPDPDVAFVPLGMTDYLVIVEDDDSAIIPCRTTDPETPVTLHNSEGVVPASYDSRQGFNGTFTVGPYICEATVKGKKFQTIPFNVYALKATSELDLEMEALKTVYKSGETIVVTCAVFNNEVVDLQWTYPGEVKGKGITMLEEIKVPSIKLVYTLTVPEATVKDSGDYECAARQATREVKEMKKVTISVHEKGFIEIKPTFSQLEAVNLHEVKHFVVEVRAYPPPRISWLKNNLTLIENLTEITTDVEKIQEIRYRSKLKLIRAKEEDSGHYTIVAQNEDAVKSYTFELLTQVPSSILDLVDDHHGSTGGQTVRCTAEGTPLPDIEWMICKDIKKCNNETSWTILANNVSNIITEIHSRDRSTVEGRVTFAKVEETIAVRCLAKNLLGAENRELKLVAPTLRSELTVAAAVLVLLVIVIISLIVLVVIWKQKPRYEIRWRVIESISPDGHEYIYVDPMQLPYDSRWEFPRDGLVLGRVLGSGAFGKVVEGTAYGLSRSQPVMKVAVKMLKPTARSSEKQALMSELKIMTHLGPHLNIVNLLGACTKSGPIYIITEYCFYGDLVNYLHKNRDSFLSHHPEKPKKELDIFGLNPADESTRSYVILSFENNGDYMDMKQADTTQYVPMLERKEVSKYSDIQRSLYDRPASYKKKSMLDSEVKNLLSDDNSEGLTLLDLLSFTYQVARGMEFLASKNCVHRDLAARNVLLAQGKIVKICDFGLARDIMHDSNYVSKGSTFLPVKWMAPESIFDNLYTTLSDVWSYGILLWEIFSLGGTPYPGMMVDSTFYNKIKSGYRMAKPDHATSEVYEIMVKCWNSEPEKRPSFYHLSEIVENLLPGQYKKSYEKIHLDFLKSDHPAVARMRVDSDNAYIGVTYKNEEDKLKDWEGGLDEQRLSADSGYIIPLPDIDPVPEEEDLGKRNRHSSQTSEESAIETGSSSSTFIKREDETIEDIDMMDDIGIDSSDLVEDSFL
T3 sequence (P45984 whole entry): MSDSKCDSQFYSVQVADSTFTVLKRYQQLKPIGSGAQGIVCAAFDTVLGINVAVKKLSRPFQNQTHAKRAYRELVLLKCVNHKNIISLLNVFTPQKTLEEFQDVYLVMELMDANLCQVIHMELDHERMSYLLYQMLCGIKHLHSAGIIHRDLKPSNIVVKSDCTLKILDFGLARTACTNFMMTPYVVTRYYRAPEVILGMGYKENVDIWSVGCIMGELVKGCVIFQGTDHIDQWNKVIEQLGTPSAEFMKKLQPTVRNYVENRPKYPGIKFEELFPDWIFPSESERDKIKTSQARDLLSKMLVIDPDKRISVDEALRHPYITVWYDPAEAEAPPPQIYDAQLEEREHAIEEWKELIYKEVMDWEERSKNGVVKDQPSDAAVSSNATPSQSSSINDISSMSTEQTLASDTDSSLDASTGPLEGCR
Sequence of PIK3CA(Q546K) (P42336 whole entry Q546K): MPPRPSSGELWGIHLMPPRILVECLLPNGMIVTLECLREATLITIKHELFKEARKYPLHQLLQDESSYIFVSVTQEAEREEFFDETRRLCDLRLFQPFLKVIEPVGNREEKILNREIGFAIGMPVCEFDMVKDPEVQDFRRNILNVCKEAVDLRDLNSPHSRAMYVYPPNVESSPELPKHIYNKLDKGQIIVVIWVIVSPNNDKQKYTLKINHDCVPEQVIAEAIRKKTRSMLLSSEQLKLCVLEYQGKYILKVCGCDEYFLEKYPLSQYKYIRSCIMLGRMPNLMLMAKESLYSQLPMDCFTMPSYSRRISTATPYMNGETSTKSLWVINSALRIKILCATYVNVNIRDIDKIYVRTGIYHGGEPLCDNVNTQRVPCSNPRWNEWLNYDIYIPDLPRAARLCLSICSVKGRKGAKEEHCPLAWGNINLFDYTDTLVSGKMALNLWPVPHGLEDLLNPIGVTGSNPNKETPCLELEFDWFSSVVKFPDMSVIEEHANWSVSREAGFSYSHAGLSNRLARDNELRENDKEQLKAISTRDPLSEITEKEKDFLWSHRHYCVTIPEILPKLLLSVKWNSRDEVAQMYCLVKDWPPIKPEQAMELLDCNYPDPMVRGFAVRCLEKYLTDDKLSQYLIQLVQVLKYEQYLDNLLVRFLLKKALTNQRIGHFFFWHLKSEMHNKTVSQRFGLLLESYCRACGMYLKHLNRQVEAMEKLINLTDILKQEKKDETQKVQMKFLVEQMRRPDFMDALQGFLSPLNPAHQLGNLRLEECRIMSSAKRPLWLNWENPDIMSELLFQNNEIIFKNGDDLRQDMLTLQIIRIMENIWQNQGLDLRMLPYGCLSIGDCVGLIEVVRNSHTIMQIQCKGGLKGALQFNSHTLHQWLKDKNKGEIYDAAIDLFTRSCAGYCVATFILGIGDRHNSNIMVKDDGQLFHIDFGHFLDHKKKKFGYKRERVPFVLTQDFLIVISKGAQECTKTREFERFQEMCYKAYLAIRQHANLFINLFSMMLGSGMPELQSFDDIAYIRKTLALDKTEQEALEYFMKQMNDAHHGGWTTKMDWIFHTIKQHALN
Sequence of EGFR(S752-I759del) (P00533 with tags, fused parts or gaps DEL752-759): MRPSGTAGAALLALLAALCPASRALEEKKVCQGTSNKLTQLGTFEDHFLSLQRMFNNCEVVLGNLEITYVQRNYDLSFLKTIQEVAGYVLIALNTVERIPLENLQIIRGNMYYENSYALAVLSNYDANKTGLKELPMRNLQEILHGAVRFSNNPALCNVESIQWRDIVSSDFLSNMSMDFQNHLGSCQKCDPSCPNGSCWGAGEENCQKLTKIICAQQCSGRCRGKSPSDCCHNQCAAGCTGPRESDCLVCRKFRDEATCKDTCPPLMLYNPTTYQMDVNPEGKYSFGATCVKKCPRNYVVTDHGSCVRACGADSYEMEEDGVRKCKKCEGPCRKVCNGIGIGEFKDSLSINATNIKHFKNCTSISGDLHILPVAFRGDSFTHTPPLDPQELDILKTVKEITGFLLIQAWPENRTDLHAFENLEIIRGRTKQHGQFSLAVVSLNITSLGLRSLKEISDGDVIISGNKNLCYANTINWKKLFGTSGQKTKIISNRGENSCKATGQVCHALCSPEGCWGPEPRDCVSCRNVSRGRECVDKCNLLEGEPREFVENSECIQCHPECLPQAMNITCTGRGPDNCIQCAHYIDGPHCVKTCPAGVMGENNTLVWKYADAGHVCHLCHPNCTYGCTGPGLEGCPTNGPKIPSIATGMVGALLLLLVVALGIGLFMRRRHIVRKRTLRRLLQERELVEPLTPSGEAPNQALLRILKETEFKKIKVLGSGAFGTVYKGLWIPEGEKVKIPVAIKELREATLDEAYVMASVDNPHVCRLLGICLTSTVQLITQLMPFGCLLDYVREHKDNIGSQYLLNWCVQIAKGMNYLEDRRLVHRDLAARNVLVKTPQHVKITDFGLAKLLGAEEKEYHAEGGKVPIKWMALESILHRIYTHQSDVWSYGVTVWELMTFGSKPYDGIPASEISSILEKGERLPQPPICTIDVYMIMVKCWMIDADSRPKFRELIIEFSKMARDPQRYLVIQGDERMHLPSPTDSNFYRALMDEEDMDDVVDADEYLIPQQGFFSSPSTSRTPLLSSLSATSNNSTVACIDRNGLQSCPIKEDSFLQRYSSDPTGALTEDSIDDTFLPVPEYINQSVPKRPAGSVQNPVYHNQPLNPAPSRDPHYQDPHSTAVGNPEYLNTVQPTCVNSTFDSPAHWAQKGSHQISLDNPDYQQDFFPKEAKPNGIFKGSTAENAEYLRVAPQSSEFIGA
Sequence of PIK3CA(E545K) (P42336 whole entry E545K): as the sequence (P42336 whole entry Q546K) above, with E545K, K546Q counted along it
Sequence of CLK1 (P49759 whole entry): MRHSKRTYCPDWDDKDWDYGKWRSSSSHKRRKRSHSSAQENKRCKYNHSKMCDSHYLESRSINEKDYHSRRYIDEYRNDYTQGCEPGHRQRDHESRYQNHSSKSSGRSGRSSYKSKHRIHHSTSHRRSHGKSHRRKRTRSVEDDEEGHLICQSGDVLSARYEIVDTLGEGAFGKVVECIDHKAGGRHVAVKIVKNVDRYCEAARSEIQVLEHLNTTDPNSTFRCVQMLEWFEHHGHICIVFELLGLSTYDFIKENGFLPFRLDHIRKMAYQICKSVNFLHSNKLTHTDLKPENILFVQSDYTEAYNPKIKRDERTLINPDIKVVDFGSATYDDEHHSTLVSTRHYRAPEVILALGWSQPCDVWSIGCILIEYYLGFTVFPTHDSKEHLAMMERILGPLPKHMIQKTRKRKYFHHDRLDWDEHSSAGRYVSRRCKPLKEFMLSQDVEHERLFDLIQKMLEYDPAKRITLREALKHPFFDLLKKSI

remaining binding at 100 µM [1]: 64%
remaining binding at 100 µM (CASK): 88%
remaining binding at 100 µM (CLK1): 89%
remaining binding at 100 µM (EGFR(S752-I759del)): 91%
remaining binding at 100 µM (EPHA4): 82%
remaining binding at 100 µM (ERK5): 100%
remaining binding at 100 µM (JNK2): 100%
remaining binding at 100 µM (MST1R): 87%
remaining binding at 10 µM (MYLK4; [2]): 85%
remaining binding at 100 µM (MYLK4; [3]): 24%
remaining binding at 10 µM (PDGFRA; [2]): 73%
remaining binding at 100 µM (PDGFRA; [3]): 37%
remaining binding at 100 µM (PIK3CA(E545K)): 58%
remaining binding at 100 µM (PIK3CA(Q546K)): 100%
remaining binding at 100 µM (TAOK1): 100%
remaining binding at 10 µM (TGFBR1; [2]): 89%
remaining binding at 100 µM (TGFBR1; [3]): 48%
remaining binding at 100 µM (WNK2): 98%
remaining binding at 100 µM (YANK2): 92%
SMILES: C[C@@H]1CC(=O)NN=C1c1ccc(NN=C(C#N)C#N)cc1 [levosimendan]
